Data: patent US10227331B2 (priority 2015, dated 2019)

What was measured:
[1] = target: VIM-1 (Pseudomonas aeruginosa (strain ATCC 15692 / DSM 22644 / CIP 104116 / JCM 14847 / LMG 12228 / 1C / PRS 101 / PAO1), UniProt A0A0F7KYQ8); test: biochemical; conditions: CCF2-FA substrate, 2 hours at 25° C
Experimental: Enzyme Activity: Determination of IC50
The Class B enzyme activities were measured in the presence of the test inhibitor in a fluorescence assay against a commercially available substrate consisting of a cephalosporin core linking 7-hydroxycoumarin to fluorescein (CCF2-FA). […] In a 384-well microplate, the test inhibitor was incubated with the metallo-β-lactamase enzyme and the substrate for 2 hours at 25° C. […] The IC50 value was determined from semi-logarithmic plots of enzyme inhibition versus inhibitor concentration, with a curve generated using a 4-parameter fit.

[2] = system: Klebsiella pneumoniae expressing VIM-1 (IHMA599644); format: cell-based; conditions: with imipenem 1 μg/ml, 95% inhibition of bacterial growth; for Klebsiella pneumoniae MITC95: VIM-1 (IHMA599644)
Experimental: (§1) Antibiotic Potentiation Activity: Determination of Synergistic Concentration
(§2) The bacterial strains tested included the clinical strains Escherichia coli expressing NDM-1 (CLB30005, CLB30016), Serratia marcescens expressing IMP-1 (CL5741), and Klebsiella pneumoniae expressing VIM-1 (IHMA599644). Inhibitor activity was measured in the presence and absence of imipenem in a 384-well microplate.
(§3) The clinical strains CLB30016, CL5741 and IHMA599644 were grown on trypticase soy agar containing 5% sheep's blood. The bacteria on agar plates were incubated at 35° C. with humidity overnight. The following day, individual colonies from each clinical strain were picked and resuspended in 5 ml saline to attain an OD600 of […], for CLB30016, CL5741 and IHMA599644, respectively. These were further diluted 1:100 into 1.1×CAMHB and used to inoculate the test wells as described below.
(§4) Imipenem in 10 mM 3-(N-morpholino)propanesulfonic acid (MOPS, pH 7) was stored in single use aliquots at −80° C. […] On the day of the assay, 4 μl of antibiotic was added to 45 ul of bacteria followed by 1 μl of test compound and mixed by pipetting and with an orbital shaker. The concentration of antibiotic used in the assay was 1 μg/ml. Microplates were covered and incubated at 35° C. for 22 hours to 24 hours. At the end of the incubation, absorbance was determined using a spectrophotometer.
(§5) For example, in general, the compounds of Examples 1-379 were determined to restore susceptibility to imipenem for one or more of the test organisms at concentrations of 100 μM or less.

[3] = system: Escherichia coli expressing NDM-1 (CLB30005, CLB30016); format: cell-based; conditions: with imipenem 1 μg/ml, 95% inhibition of bacterial growth; for Escherichia coli MITC95: NDM-1 (CLB30016)
Experimental: as §1, §2, §3, §4, §5

[4] = system: Serratia marcescens expressing IMP-1 (CL5741); format: cell-based; conditions: with imipenem 1 μg/ml, 95% inhibition of bacterial growth; for Serratia marcescens MITC95: IMP-1 (CL5741)
Experimental: as §1, §2, §3, §4, §5

[5] = system: P. aeruginosa expressing IMP-1, efflux+ (MB9798); format: cell-based, Pseudomonas aeruginosa; conditions: for P. aeruginosa expressing IMP-1, efflux+ (MB9798) MITC95: imipenem at 2 μg/mL, in the presence of a class A, C, D serine β-lactamase inhibitor closely related to relebactam; for Efflux ratio: ratio MITC95 PA_9798/MITC95 PA_9799
Source text: (§6) The strain background is Pseudomonas aeruginosa PAO1.

[6] = system: P. aeruginosa expressing IMP-1, efflux− (MB9799); test: Efflux: concentration of MBL inhibitor which restores susceptibility to imipenem; format: cell-based, Pseudomonas aeruginosa; conditions: imipenem at 2 μg/mL, in the presence of a class A, C, D serine β-lactamase inhibitor closely related to relebactam
Source text: as §6

SMILES | IC50 [1] [nM] | Klebsiella pneumoniae expressing VIM-1 (IHMA599644) MITC95 [2] [µM] | Escherichia coli expressing NDM-1 (CLB30016) MITC95 [3] [µM] | Serratia marcescens expressing IMP-1 (CL5741) MITC95 [4] [µM] | P. aeruginosa expressing IMP-1, efflux+ (MB9798) MITC95 [5] [µM] | Efflux ratio [5] | P. aeruginosa expressing IMP-1, efflux− (MB9799) MITC95 [6] [µM] | Klebsiella pneumoniae MITC95 [2] [µM] | Escherichia coli MITC95 [3] [µM] | Serratia marcescens MITC95 [4] [µM]
NS(=O)(=O)c1c(S(=O)(=O)C2CNC2)ccc(-c2ccc(O)nc2)c1-c1nnn[nH]1.O=C(O)C(F)(F)F [Example 109, 3-((4-(6-hydroxypyridin-3-yl)-2-sulfamoyl-3-(1H-tetrazol-5-yl)phenyl)sulfonyl)azetidin-1-ium 2,2,2-trifluoroacetate] | 1.44 | 3.125 | 0.7813 | 1.563 | 12.5 | 8.00 | 1.563 | – | – | –
NS(=O)(=O)c1c(S(=O)(=O)C2CNC2)ccc(-c2cccc3c2C(=O)NS3(=O)=O)c1-c1nn[nH]n1 [Example 249, 6-(Azetidin-3-ylsulfonyl)-3-(1,1-dioxido-3-oxo-2,3-dihydrobenzo[d]isothiazol-4-yl)-2-(2H-tetrazol-5-yl)benzenesulfonamide] | 0.322 | – | – | – | 12.5 | 2.00 | 6.25 | 25 | 6.25 | 6.25
NC[C@H](O)CS(=O)(=O)c1ccc(-c2cccnc2N)c(-c2nn[nH]n2)c1S(N)(=O)=O [Example 368, (S)-6-((3-amino-2-hydroxypropyl)sulfonyl)-3-(2-aminopyridin-3-yl)-2-(2H-tetrazol-5-yl) benzenesulfonamide] | 0.561 | – | – | – | 1.563 | 1.33 | 1.172 | 2.344 | 0.1953 | 0.7813
Nc1cnccc1-c1ccc(S(=O)(=O)C2CNC2)c(S(N)(=O)=O)c1-c1nnn[nH]1.O=C(O)C(F)(F)F [Example 105, 3-((4-(3-aminopyridin-4-yl)-2-sulfamoyl-3-(1H-tetrazol-5-yl)phenyl)sulfonyl)azetidin-1-ium 2,2,2-trifluoroacetate] | 0.759 | 3.125 | 3.125 | 1.563 | 3.125 | 2.00 | 1.563 | – | – | –
NCCS(=O)(=O)c1ccc(-c2ccnc3nc(N)[nH]c23)c(-c2nnn[nH]2)c1S(N)(=O)=O [Example 303, 3-(2-amino-1H-imidazo[4,5-b]pyridin-7-yl)-6-((2-aminoethyl)sulfonyl)-2-(1H-tetrazol-5-yl)benzenesulfonamide] | 11.3 | – | – | – | 100 | 32.00 | 3.125 | 3.125 | 3.125 | 6.25
CNc1ncc(-c2ccc(S(=O)(=O)C3CNC3)c(S(N)(=O)=O)c2-c2nnn[nH]2)cn1.O=C(O)C(F)(F)F [Example 106, 3-((4-(2-(methylamino)pyrimidin-5-yl)-2-sulfamoyl-3-(1H-tetrazol-5-yl)phenyl)sulfonyl)azetidin-1-ium 2,2,2-trifluoroacetate] | 1.59 | 6.25 | 12.5 | 3.125 | 6.25 | 4.00 | 1.563 | – | – | –
Nc1nc2cc(-c3ccc([S+]([O-])C4CNC4)c(S(N)(=O)=O)c3-c3nn[nH]n3)ccc2[nH]1 (centres unmarked) [Example 11, 3-(2-amino-1H-benzo[d]imidazol-5-yl)-6-(azetidin-3-ylsulfinyl)-2-(2H-tetrazol-5-yl)benzenesulfonamide] | 1.86 | 0.3906 | 0.3906 | 0.7813 | 3.125 | 8.00 | 0.3906 | – | – | –
NC[C@@H](O)CS(=O)(=O)c1ccc(-c2cccnc2N)c(-c2nn[nH]n2)c1S(N)(=O)=O [Example 367, (R)-6-((3-amino-2-hydroxypropyl)sulfonyl)-3-(2-aminopyridin-3-yl)-2-(2H-tetrazol-5-yl) benzenesulfonamide] | 0.703 | – | – | – | 1.563 | 1.00 | 1.563 | 1.563 | 0.1953 | 0.7813
NCc1cncc(-c2ccc(S(=O)(=O)C3CNC3)c(S(N)(=O)=O)c2-c2nnn[nH]2)c1.O=C(O)C(F)(F)F [Example 107, 3-((4-(5-(aminomethyl)pyridin-3-yl)-2-sulfamoyl-3-(1H-tetrazol-5-yl)phenyl)sulfonyl)azetidin-1-ium 2,2,2-trifluoroacetate] | 28.3 | 3.125 | 1.563 | 6.25 | 12.5 | 4.00 | 3.125 | – | – | –
C[C@@H](CN)S(=O)(=O)c1ccc(-c2cccc3nc(N)[nH]c23)c(-c2nn[nH]n2)c1S(N)(=O)=O [Example 278, 3-(2-amino-3H-benzo[d]imidazol-4-yl)-6-((S)-1-aminopropan-2-ylsulfonyl)-2-(2H-tetrazol-5-yl)benzenesulfonamide] | 0.365 | – | – | – | 1.563 | 2.00 | 0.7813 | 1.563 | 0.3906 | 0.7813
NS(=O)(=O)c1c(S(=O)(=O)C2CNC2)ccc(C2=CC3C=NNC3N=C2)c1-c1nnn[nH]1.O=C(O)C(F)(F)F (centres unmarked) [Example 108, 3-((4-(3a,7a-dihydro-1H-pyrazolo[3,4-b]pyridin-5-yl)-2-sulfamoyl-3-(1H-tetrazol-5-yl)phenyl)sulfonyl)azetidin-1-ium 2,2,2-trifluoroacetate] | 0.612 | 6.25 | 6.25 | 3.125 | 25 | 15.99 | 1.563 | – | – | –
